Reference: patent US10620215B2, “Real-time imaging sensor for measuring cellular thiol level” (CELL2IN, INC., priority 2014, dated 2020)

What was measured:
HeLa cells = assay: Level of thiols / reduced GSH in living HeLa cells, by FreSH-tracer fluorescence intensity ratio; type: cell-based; conditions: treatment with GSH-related enzyme inhibitor
Procedure: HeLa and RAW264.7 cells were cultured in DMEM (containing 10% heat-inactivated FBS (Hyclone), 100 U/ml of penicillin, 100 μg/ml of streptomycin sulfate and 2 mM glutamine and free of phenol red). HeLa (1.8×10^5 cells/dish) and RAW264.7 (2×10^5 cells/dish) were seeded in 35 mm cover glass bottom dishes (SPL Life Sciences), and then cultured under the conditions of 37° C. and 5% CO2 for the indicated time. Before observation using a fluorescence microscope, the HeLa cells were incubated with 2 mL of a medium containing 5 μM of the FreSH-tracer HeLa for 2 hours, and the RAW264.7 cells were incubated for 4 hours. Real-time images of the cells were acquired using a Nikon A1 laser scanning confocal microscope. The imaging test was 2 performed while the cells were incubated under the conditions of 37° C. and 5% CO2 in a chamber mounted in a Nikon ECLIPSE Ti inverted microscope equipped with CFI Plan apochromat 60× and 1.40 numerical aperture (NA) objective lenses. The FreSH-tracer was excited with laser beams at 403 nm and 488 nm, and the fluorescence of the tracer was detected through filters with 500-550 nm and 570-620 nm band intervals. Using NIS-Elements AR software, the experimental data were analyzed and the ratio of fluorescence was imaged. […]

RAW264.7 = assay: Level of thiols in RAW264.7 macrophages after NADPH oxidase activation, by FreSH-tracer F510/F580 ratio; type: cell-based; conditions: PMA treatment for 10-20 minutes; returned to basal level after 40-50 minutes
Procedure: HeLa and RAW264.7 cells were cultured in DMEM (containing 10% heat-inactivated FBS (Hyclone), 100 U/ml of penicillin, 100 μg/ml of streptomycin sulfate and 2 mM glutamine and free of phenol red). HeLa (1.8×10^5 cells/dish) and RAW264.7 (2×10^5 cells/dish) were seeded in 35 mm cover glass bottom dishes (SPL Life Sciences), and then cultured under the conditions of 37° C. and 5% CO2 for the indicated time. Before observation using a fluorescence microscope, the HeLa cells were incubated with 2 mL of a medium containing 5 μM of the FreSH-tracer HeLa for 2 hours, and the RAW264.7 cells were incubated for 4 hours. Real-time images of the cells were acquired using a Nikon A1 laser scanning confocal microscope. The imaging test was 2 performed while the cells were incubated under the conditions of 37° C. and 5% CO2 in a chamber mounted in a Nikon ECLIPSE Ti inverted microscope equipped with CFI Plan apochromat 60× and 1.40 numerical aperture (NA) objective lenses. The FreSH-tracer was excited with laser beams at 403 nm and 488 nm, and the fluorescence of the tracer was detected through filters with 500-550 nm and 570-620 nm band intervals. Using NIS-Elements AR software, the experimental data were analyzed and the ratio of fluorescence was imaged.
ROS that are generated by phagocytic NADPH oxidase (Phox) activity are essential defense substances that kill invasive microorganisms. […]

[1] = Chemical equilibrium constant (Kd) of the tracer with β-mercaptoethanol, from fluorescence emission after equilibration; type: binding
Procedure: (§1) A buffer (10 mM phosphate, 150 mM NaCl, pH 7.4, H2O:DMSO=98:2) containing a mixture of a thiol compound (0-200 mM) and a FreSH-tracer (10 μM) was prepared, and the time-dependent UV-Vis absorption spectrum and fluorescence emission spectrum of the buffer were measured with S-3100 spectrophotometer and Hitachi F-7000 spectrophotometer. For preparation of buffers for use in in vitro experiments at pHs of pH 4, 5, 9 and 10, acetate and CHES (2-(cyclohexylamino)ethanesulfonate) were used instead of phosphate.
(§2) After a chemical equilibrium between the thiol compound (0-200 mM) and the FreSH-tracer was formed by an in vitro reaction, the emission spectrum of fluorescence emitted upon excitation with light at a wavelength of 430 nm was measured. The relationship between the fluorescence intensity at the maximum emission wavelength (580 nm) and the concentration of the thiol compound was analyzed by non-linear regression to determine the chemical equilibrium constant (Kd) between the thiol compound and the FreSH-tracer.

[2] = Chemical equilibrium constant (Kd) and fluorescence ratio response of the tracer with glutathione (GSH) in vitro; type: binding; conditions: equilibration with GSH
Procedure: as §1, §2

SMILES | Kd [1] [mM] | other results
CCCCS(=N)(=O)CCC(N)C(=O)O (centres unmarked) [BSO, buthionine sulphoximine] |  | fluorescence intensity ratio of the sensor (level of reduced GSH) in HeLa cells (HeLa cells): reduced
CCCCCCCCCCCCCC(=O)O[C@@H]1[C@@H](C)[C@@]2(O)[C@@H](C=C(CO)C[C@]3(O)C(=O)C(C)=C[C@@H]23)[C@@H]2C(C)(C)[C@]12OC(C)=O [PMA, phorbol 12-myristate 13-acetate] |  | level of thiols in the cells (RAW264.7): reduced
CN(C)C(=O)C(C#N)=Cc1cc2cc3c4c(c2oc1=O)CCCN4CCC3 [formula 2] | 12 ± 1 | 
CCOC(=O)CNC(=O)C(C#N)=Cc1cc2cc3c4c(c2oc1=O)CCCN4CCC3 [formula 3] | 14 ± 1 | 
CC(=O)OCOC(=O)C1CCN(C(=O)C(C#N)=Cc2cc3cc4c5c(c3oc2=O)CCCN5CCC4)CC1 [formula 4] |  | Kd [2]: 2.8 ± 0.4 mM
N#CC(=Cc1cc2cc3c4c(c2oc1=O)CCCN4CCC3)C(=O)N1CCC(C(=O)NCC[P+](c2ccccc2)(c2ccccc2)c2ccccc2)CC1 [formula 5] | 2.2 ± 0.1 | 
CC(=O)OCOC(=O)CC[C@H](NC(=O)C1CCN(C(=O)C(C#N)=Cc2cc3cc4c5c(c3oc2=O)CCCN5CCC4)CC1)C(=O)OCOC(C)=O [formula 7] |  | Kd [2]: 3.7 ± 0.2 mM
CCN(CC)c1ccc2cc(C=C(C#N)C(=O)N(C)C)c(=O)oc2c1 [formula 8] | 2.2 ± 0.1 | 
